Assay results as given in patent publication US20220362386A1, “LIQUID COMPOSITIONS COMPRISING A LEVODOPA AMINO ACID CONJUGATE AND USES THEREOF” (NeuroDerm, Ltd., priority 2019, published 2022).
Where a name gives a salt, the structure may show the parent alone. Read-outs that look alike come from different tables or passages of the source. Non-standard residues stand in square brackets, D forms with d. Residues, ends and D or L forms follow the SMILES beside them. Dopa = N[C@@H](Cc1ccc(O)c(O)c1)C(=O)O

What was measured:
[1] = Human blood stability test; format: in vitro ADME; design: key: slope of % decrease of remaining compound over time; higher = faster metabolism; details: slope of the percentage decrease of remaining compound; substrate 10 μM; 0-60 minutes
Description: The stability of several LDAA compounds in human blood was tested. The substrate concentration was 10 μM and the incubation time 0, 5, 15, 30 and 60 minutes.
The results are described in Table 19, wherein the results describe the Ke, i.e., the slope of the percentage decrease of the remaining amount of the compound, measured at each of the above time points, such that the higher the Ke the faster the metabolism.

[2] = Protein binding, equilibrium dialysis method; format: in vitro ADME, human; details: human, human plasma, pH 7.4, 1.0E-05M
Description: (§1) The protein binding values of various LDAA compounds in their TFA salt form (10^−5M) were tested in human plasma. The equilibrium dialysis technique was used to separate the fraction of the test compound that was unbound from the fraction of the test compound that bound to proteins during the test. The test was performed on 96-well plates in a dialysis block constructed from Teflon™.
(§2) The protein containing matrix used was human plasma, wherein the assay matrix was human serum albumin and alpha-1 acid glycoprotein. The protein matrix was spiked with each test compound at 10 μM (by default, n=2) with a final DMSO concentration of 1%. The dialysate compartment is loaded with phosphate buffered saline (PBS, pH 7.4), and the sample compartment was loaded with an equal volume of the spiked protein matrix. The dialysis plate was then sealed and incubated at 37° C. for 4 h.
(§3) Following the incubation, samples were taken from each compartment, diluted with PBS followed by the addition of acetonitrile, after which the samples were centrifuged. The supernatants were collected and analyzed by HPLC-MS/MS. The HPLC tests included a binary LC pump with an autosampler, a C18 column (2×20 mm), and gradient elution. The HPLC conditions were adjusted when necessary.
(§4) A control sample (n=2) was prepared from the spiked protein matrix in the same manner; however, no dialysis was performed on the control. It is noted that the control sample served as the bases for the recovery determination.
(§5) Acebutolol, quinidine, and warfarin were used in each assay as reference compounds, wherein it is known that those reference compounds provide low, medium and high human plasma protein binding values, respectively.
(§6) The % of the tested compound that is bound to proteins and the recovery values were calculated as follows:
(§7) Protein binding (%)=100×(Areap−Areab)/Areap
(§8) Recovery (%)=100×(Areap−Areab)/Areac
(§9) The determination of the recovery % serves as an indicator of reliability of the calculated protein binding value. […] This is most likely due to non-specific binding or degradation of the test compound. It is noted that a recovery of above 60% is considered to be reliable, while under 60% recovery, the results of the test are considered to be unreliable.

[3] = system: human plasma; experiment: Protein binding, equilibrium dialysis method; format: in vitro ADME; details: 1.0E-05M; 37° C., 4 h
Description: as §1, §2, §3, §4, §5, §6, §7, §8, §9

[4] = In-vitro absorption, Caco-2 A-B permeability; format: in vitro ADME, human; details: human, Caco-2, pH 7.4, Caco-2 A-B, without verapamil; for Papp A→B at 60 min, 10 μM: 1.0E−05M
Description: (§10) Conditions may be adjusted when necessary.
(§11) D denotes donor and R is receiver. […] V is the volume of the donor or receiver.
(§12) The test was performed with and without verapamil, which is a permeation inhibitor, and the results are presented in Tables 22 (without verapamil) and 34 (with verapamil).

[5] = system: P-gp; experiment: In-vitro absorption, Caco-2 A-B permeability; format: in vitro ADME, human; details: human, Caco-2, pH 7.4, with verapamil 100 μM on both the A and B sides, Caco-2 A-B, in the presence of verapamil
Description: as §10, §11, §12

[6] = Comparative formulation tests, physical stability (Tables 32a-c, 33a-c); format: physicochemical; details: LDAA TFA salt/CD formulation; for Physical stability (visual), Day 1: Day 1, room temperature; for Physical stability (visual), Day 2: Day 2, room temperature; for Physical stability (visual), Day 5: Day 5, room temperature after two days at 2-8° C.; for Physical stability (visual), Day 6: Day 6, room temperature after two days at 2-8° C.; for Physical stability (visual), Day 40: Day 40, returned to 2-8° C.
Description: It is noted that the formulations were similarly to those above; however, CD was added, and further, the amounts of the antioxidants, i.e., ascorbic acid and NAC, were added at three different concentrations, as detailed in Tables 32a-c below. Further, an additional amount of arginine was added to the solution in order to adjust the pH to a physiologically acceptable pH.
The formulations prepared as detailed in Tables 32a, 32b and 32c were (a) held at room temperature for two days; (b) transferred to a refrigerator (2-8° C.) for two days; and (c) transferred from the refrigerator to room temperature for an additional two days, during which they were assessed again for precipitants. The formulations were then returned to the refrigerator (2-8° C.) and assessed for precipitants on day 40. The physical stability of each formulation was assessed on the first two days and again on the last two days. The physical stability of the formulations was assessed visually. A clear solution was considered to be stable, while a solution comprising precipitants was considered to be physically unstable. The stability results of the formulations of Tables 32a, 32b and 32c are detailed in Tables 33a, 33b and 33c, respectively.

[7] = read-out: Percent Recovery Mean
[8] = NB 144-15, ~0.1% Asc + ~0.1% NAC
[9] = NB 144-18, ~0.4% Asc + ~0.4% NAC
[10] = NB 144-20, ~0.8% Asc + ~0.8% NAC

Ke [1] | recovery at 4 h, 10 μM ([2]; read-out: % Recovery 1st) | recovery at 4 h, 10 μM ([2]; read-out: % Recovery 2nd) | recovery at 4 h, 10 μM ([2]; read-out: % Recovery Mean) | % Protein Bound 1st [3] | % Protein Bound 2nd [3] | % Protein Bound Mean [3] | Physical stability (visual), Day 1 [6, 8] | Physical stability (visual), Day 2 [6, 8] | Physical stability (visual), Day 5 [6, 8] | Physical stability (visual), Day 6 [6, 8] | Physical stability (visual), Day 40 [6, 8] | Physical stability (visual), Day 1 [6, 9] | Physical stability (visual), Day 2 [6, 9] | Physical stability (visual), Day 5 [6, 9] | Physical stability (visual), Day 6 [6, 9] | Physical stability (visual), Day 40 [6, 9] | Physical stability (visual), Day 1 [6, 10] | Physical stability (visual), Day 2 [6, 10] | Physical stability (visual), Day 5 [6, 10] | Structure (SMILES) | also measured
−0.011 | 75% | 71% | 73% | 24.4% | 27.8% | 26% | Stable | Stable | Stable | Stable | Stable | Precipitated | Precipitated | Precipitated | Precipitated | Precipitated | Stable | Stable | Stable | N[C@@H](CSC[C@@H](NC(=O)[C@@H](N)Cc1ccc(O)c(O)c1)C(=O)O)C(=O)O (single isomer, unassigned; peak 1) [LD-LA1 TFA salt, Levodopa Lanthionine Peak 1 TFA Salt] | Papp A→B at 60 min, 10 μM ([4]; read-out: Permeability 1st): 0.2 ×10⁻⁶ cm/s; Papp A→B at 60 min, 10 μM ([4]; read-out: Permeability 2nd): 0.21 ×10⁻⁶ cm/s; Papp A→B at 60 min, 10 μM ([4]; read-out: Permeability Mean): 0.2 ×10⁻⁶ cm/s; recovery at 60 min, 10 μM ([4]; read-out: Percent Recovery 1st): 82%; recovery at 60 min, 10 μM ([4]; read-out: Percent Recovery 2nd): 77%; recovery at 60 min, 10 μM [4, 7]: 79%; recovery at 60 min, 10 μM ([5]; read-out: Percent Recovery 1st): 58%; recovery at 60 min, 10 μM ([5]; read-out: Percent Recovery 2nd): 67%; recovery at 60 min, 10 μM [5, 7]: 62%; Physical stability (visual), Day 6 [6, 10]: Stable; Physical stability (visual), Day 40 [6, 10]: Stable
0.0014 | 105% | 108% | 107% | 99.1% | 99.4% | 99% | Stable | Stable | Stable | Stable | Stable | Stable | Stable | Stable | Stable | Stable | Stable | Stable | Stable | N[C@@H](Cc1ccc(O)c(O)c1)C(=O)N[C@@H](CC(=O)O)C(=O)O [LD-Asp TFA salt, Levodopa Aspartic Acid] (H-[Dopa]-Asp-OH) | Physical stability (visual), Day 6 [6, 10]: Stable; Physical stability (visual), Day 40 [6, 10]: Stable

Structure (SMILES) | Ke [1] | recovery at 4 h, 10 μM ([2]; read-out: % Recovery 1st) | recovery at 4 h, 10 μM ([2]; read-out: % Recovery 2nd) | recovery at 4 h, 10 μM ([2]; read-out: % Recovery Mean) | % Protein Bound 1st [3] | % Protein Bound 2nd [3] | % Protein Bound Mean [3] | Physical stability (visual), Day 1 [6, 8] | Physical stability (visual), Day 2 [6, 8] | Physical stability (visual), Day 5 [6, 8] | Physical stability (visual), Day 6 [6, 8] | Physical stability (visual), Day 40 [6, 8] | Physical stability (visual), Day 1 [6, 9] | Physical stability (visual), Day 2 [6, 9] | Physical stability (visual), Day 5 [6, 9] | Physical stability (visual), Day 6 [6, 9] | Physical stability (visual), Day 40 [6, 9] | Physical stability (visual), Day 1 [6, 10] | Physical stability (visual), Day 2 [6, 10] | Physical stability (visual), Day 5 [6, 10] | also measured
N=C(N)NCCC[C@H](NC(=O)[C@@H](N)Cc1ccc(O)c(O)c1)C(=O)O [LD-Arg TFA salt, Levodopa Arginine TFA Salt] | 0.0919 | 6% | 5% | 6% | 44.1% | 26.4% | 35% | Stable | Stable | Stable | Stable | Stable | Stable | Stable | Stable | Stable | Stable | Stable | Stable | Stable | Papp A→B at 60 min, 10 μM ([4]; read-out: Permeability 1st): 0.1 ×10⁻⁶ cm/s; Papp A→B at 60 min, 10 μM ([4]; read-out: Permeability 2nd): 0.09 ×10⁻⁶ cm/s; Papp A→B at 60 min, 10 μM ([4]; read-out: Permeability Mean): < 0.1 ×10⁻⁶ cm/s; recovery at 60 min, 10 μM ([4]; read-out: Percent Recovery 1st): 26%; recovery at 60 min, 10 μM ([4]; read-out: Percent Recovery 2nd): 26%; recovery at 60 min, 10 μM [4, 7]: 26%; recovery at 60 min, 10 μM ([5]; read-out: Percent Recovery 1st): 25%; recovery at 60 min, 10 μM ([5]; read-out: Percent Recovery 2nd): 26%; recovery at 60 min, 10 μM [5, 7]: 25%; Physical stability (visual), Day 6 [6, 10]: Stable; Physical stability (visual), Day 40 [6, 10]: Stable
